Experimental data as given in publication PMC10564737, “Structure-based design of a phosphotyrosine-masked covalent ligand targeting the E3 ligase SOCS2” (Nature Communications, 2023).
“And” between values parts separate entries of the source, which are not always exact repeats. Equal entries are not always repeated.

What was measured:
SBC2 [1] = target: T1, SBC2 (Homo sapiens, UniProt O14508); assay: Isothermal titration calorimetry (ITC), direct titration; format: binding; settings: for Kd: ITC KD, direct ITC, 298 K
T1 construct: SOCS2 (amino acids 32–198); His6 (N, cleaved yes); made in house; host or cells: E. coli BL21(DE3)
Protocol: Experiments were performed with ITC200 instrument (Malvern) in 100 mM HEPES pH 7.5, 50 mM NaCl, 0.5 mM TCEP at 298 K. The ITC titration consisted of 0.4 μl initial injection (discarded during data analysis) followed by 19 of 2 μl injections at 120 s interval between injections. 1 mM of the ligands in 2–4% DMSO were titrated into 100 μM SBC2. […] Binding data was subtracted from a control titration where ligand was titrated into buffer, and fitted using a one-set-of-site binding model to obtain dissociation constant (Kd), binding enthalpy (ΔH), and stoichiometry (N) using MicroCal PEAQ-ITC Analysis Software1.1.0.1262 and MicroCal ITC-ORIGIN Analysis Software 7.0 (Malvern).

SBC2 [2] = target: T1, SBC2; assay: Surface plasmon resonance (SPR) with SBC2 immobilized on the chip; format: binding; settings: for improvement of binding affinity compared to 5: SPR; for Kd: Table 2, second-round library, n = 1
Source text: First, we decided to optimize the N-terminal region of 1 while maintaining the N-methylamide group at the C-terminus. To generate analogs rapidly, we employed a solid phase synthesis using methyl indole AM resin. After Fmoc deprotection, the resin was loaded with Fmoc-Tyr (PO(OBzl)2)-OH[29]. Subsequent coupling with various commercially available carboxylic acids and cleavage with TFA allowed the rapid synthesis of N-methylcarboxamide phosphotyrosines (Supplementary Fig. 1). We introduced different substituents at the N-terminus to cover a range of physicochemical properties (e.g. alicyclic, heterocyclic, aromatic with electron-withdrawing and electron-donating groups) to maximize potential interactions (see Table 1 for representative examples). Binding affinities of the synthesized compounds for SOCS2 were measured via two orthogonal biophysical binding assays: (1) surface plasmon resonance (SPR) with SBC2 immobilized on the chip (Supplementary Fig. 7); and (2) ^19F ligand-observed displacement NMR assays, providing two orthogonal biophysical measurements of dissociation constants (KD)[29],[31]. We found an excellent correlation between the KD values measured via the two techniques (Table 1). Para-substituted benzyl moieties yielded the greatest contributions to binding affinity and there were only slight differences between electron-withdrawing groups such as a methyl ester and electron-donating such as methoxy group.
SPR experiments were performed using a Biacore S200 instrument (GE Healthcare) in 20 mM HEPES pH 7.5, 150 mM NaCl, 1 mM TCEP, 0.005% Tween20, 2% DMSO buffer at 10 °C. Biotinylated SBC2 was immobilized onto a chip surface (the final surface density of biotinylated SBC2 was ~3000–4000 RU). AviTagged-SBC was biotinylated using BirA enzyme as per manufacturer’s protocol (Avidity). Compounds were serially diluted in the running buffer and injected individually: contact time 60 s, flow rate 30 μL/min, dissociation time 150 s, using a stabilization period of 30 s and syringe wash (50% DMSO) between injections. Data analysis was carried out using Biacore Evaluation Software (GE Healthcare). All data were double-referenced for reference surface and blank injection. The processed sensograms were fit to a steady-state affinity using a 1:1 binding model for KD estimation.

[3] = target: T2, HiBiT-SOCS2 fusion in HeLa cells (Homo sapiens, UniProt O14508); assay: Split-NanoLuc CETSA, live-cell mode; format: cell-based; set-up: Produrg CETSA screening, raw signal: reference not given here; settings: for Produrg CETSA screening, raw signal: 50uM 20hrs
T2 construct: encoding SOCS2 (32–198) in pBiT3.1-N expression vector; expressed in transfected cells; host or cells: HeLa
Protocol: One of the challenges with small-molecule binders displaying on-target activity with recombinant proteins, is to translate their utility to a cellular context. […] One of the advantages of CETSA is that target engagement can be monitored without the need for the development of a cell-permeable tracer molecule.
We utilized CETSA in a live-cell mode to evaluate the efficacy and rank the different prodrugs. We treated live HeLa cells with 50 μM compound (prodrugs) for 20 h and monitored Tagg shift as a proxy for the combo of prodrug permeability and unmasking (Fig. 4d). […] The observation could be because the POM group unmasking requires only esterase unlike the reliance of compounds 21–23 on esterase and phosphoramidase for unmasking an aryloxy phosphoramidate group.
N-terminal HiBiT-SOCS2 fusion was generated by encoding SOCS2 (32–198) in pBiT3.1-N expression vector (Promega). The transfection and target engagement assay were performed by modifying a NanoLuc target engagement protocol (Promega) with some small modifications. Briefly, HiBiT-SOCS2 fusion construct was transfected into HeLa cells using FuGENE HD (Promega) according to the manufacturer’s protocol. HiBiT-SOCS2 fusion construct was diluted into Transfection Carrier DNA (Promega) at a mass ratio of 1:100 or 1:10 for permeabilised and live-cell CETSA respectively. FuGENE HD was added at a ratio of 1:3 (μg DNA: μL FuGENE HD). 1 part (vol) of FuGENE HD complexes thus formed were combined with 20 parts (vol) of HeLa cells suspended at a density of 2 × 10^5 cells/mL, followed by incubation in a humidified, 37 °C + 5% CO2 incubator. After 20 h of incubation HeLa cells were detached and resuspended at a density of 2.5 × 10^5 cells/mL in Opti-MEM media without serum or phenol red but supplemented with protease inhibitor cocktail (Roche). Compounds stocks were added to cell suspension to maintain a final DMSO concentration of 1%. For the permeabilised assay format, 96-well PCR plates (Thermo) were pre-treated with digitonin to have a final well concentration of 50 μg/ml. 50 μl Opti-MEM cell suspension was then aliquoted to each well of the 96-well plate. The plates are then covered with microporous tape sheet (Qiagen) prior to incubation in a humidified, 37 °C + 5% CO2 incubator. Post-incubation we heat the PCR plates in 16-point temperature (split across two runs) curve spanning degrees 40-72 °C temperature span (CFX96 Touch Real-Time PCR Detection System, BioRad). The thermal cycler block was allowed to rise to the designated temperatures prior to placement of the PCR plates into the heating block and heat treatment for 3 min. After incubating the plates at room temperature for over 3 min, 50 μl of the Nano-Glo HiBiT Lytic mix (Promega) was added to each well. Samples were mixed by pipetting and placing the plate on an orbital shaker (600 rpm) for 5 min. 20 μl of the samples (in triplicates) were transferred to a AlphaPlate-384 plate (Perkin Elmer). Luminescence was recorded with GloMax Discover Microplate Reader (Promega). To generate apparent Tagg curves, the data is first converted to percent stabilized by relating the observed luminescence to the luminescence of the lowest temperature (40 °C) for that given sample. Data are then fitted to obtain apparent Tagg values using the Boltzmann Sigmoid equation using Graphpad Prism 9.

T1 sequence (O14508 32-198): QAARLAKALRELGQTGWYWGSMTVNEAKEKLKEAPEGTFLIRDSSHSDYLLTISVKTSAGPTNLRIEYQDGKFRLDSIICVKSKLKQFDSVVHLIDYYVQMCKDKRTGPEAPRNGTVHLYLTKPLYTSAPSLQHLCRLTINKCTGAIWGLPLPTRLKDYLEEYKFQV
T1 sequence (Q15370 1-104 partner limits assumed): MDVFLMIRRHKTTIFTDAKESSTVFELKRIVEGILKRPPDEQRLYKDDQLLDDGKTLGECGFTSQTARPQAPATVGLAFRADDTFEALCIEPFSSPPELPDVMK
T1 sequence (Q15369 17-112 partner limits assumed): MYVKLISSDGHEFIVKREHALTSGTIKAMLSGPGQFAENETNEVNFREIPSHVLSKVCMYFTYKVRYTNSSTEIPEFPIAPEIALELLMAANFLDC
T2 sequence (O14508 32-198): as the sequence (O14508 32-198) above
T2 sequence (Q15370 whole entry, further chain, the tested form may be a part): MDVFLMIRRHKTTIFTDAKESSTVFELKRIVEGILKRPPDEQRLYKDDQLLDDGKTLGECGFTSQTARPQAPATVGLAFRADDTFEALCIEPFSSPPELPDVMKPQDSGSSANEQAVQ
T2 sequence (Q15369 whole entry, further chain, the tested form may be a part): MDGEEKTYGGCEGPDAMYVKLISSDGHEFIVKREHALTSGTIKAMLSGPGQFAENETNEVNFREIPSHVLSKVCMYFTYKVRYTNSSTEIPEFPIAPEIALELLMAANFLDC

O=C(Cc1ccc(F)cc1)N[C@@H](Cc1ccc(OP(=O)(O)O)cc1)C(=O)NCc1ccc(F)cc1 [Compound 9, (S)-4-(3-((4-fluorobenzyl)amino)-2-(2-(4-fluorophenyl)acetamido)-3-oxopropyl)phenyl phosphate]
ITC ΔG (SBC2 [1]): -7.65 kcal/mol | ITC −TΔS (SBC2 [1]): -3.55 kcal/mol | Kd (SBC2 [1]): 2600 nM | improvement of binding affinity compared to 5 (SBC2 [2]): 10 fold | Kd (SBC2 [2]): 4200 nM

Cc1cccc(CNC(=O)[C@H](Cc2ccc(OP(=O)(O)O)cc2)NC(=O)Cc2ccc(F)cc2)c1 [Compound 10, (S)-4-(2-(2-(4-fluorophenyl)acetamido)-3-((3-methylbenzyl)amino)-3-oxopropyl)phenyl phosphate]
ITC ΔG (SBC2 [1]): -8.12 kcal/mol | ITC −TΔS (SBC2 [1]): -2.31 kcal/mol | Kd (SBC2 [1]): 1100 nM | improvement of binding affinity compared to 5 (SBC2 [2]): 10 fold | Kd (SBC2 [2]): 3700 nM

Cc1cc(CNC(=O)[C@H](Cc2ccc(OP(=O)(O)O)cc2)NC(=O)Cc2ccc(F)cc2)ccc1F [Compound 11, (S)-4-(3-((4-fluoro-3-methylbenzyl)amino)-2-(2-(4-fluorophenyl)acetamido)-3-oxopropyl)phenyl phosphate]
ITC ΔG (SBC2 [1]): -8.23 kcal/mol | ITC ΔH (SBC2 [1]): -5.25 kcal/mol | ITC −TΔS (SBC2 [1]): -2.98 kcal/mol | Kd (SBC2 [1]): 1000 nM | Kd (SBC2 [2]): 2700 nM

CCc1cc(CNC(=O)[C@H](Cc2ccc(OP(=O)(O)O)cc2)NC(=O)Cc2ccc(F)cc2)ccc1F [Compound 12, (S)-4-(3-((3-ethyl-4-fluorobenzyl)amino)-2-(2-(4-fluorophenyl)acetamido)-3-oxopropyl)phenyl phosphate]
ITC ΔG (SBC2 [1]): -8.59 kcal/mol | ITC ΔH (SBC2 [1]): -8.16 kcal/mol | ITC −TΔS (SBC2 [1]): -0.43 kcal/mol | Kd (SBC2 [1]): 500 nM and 510 nM | Kd (SBC2 [2]): 2200 nM

C[C@H](NP(=O)(Oc1ccc(C[C@H](NC(=O)Cc2ccc(F)cc2)C(=O)NCc2cccc(NC(=O)CCl)c2)cc1)Oc1cccc2ccccc12)C(=O)OCc1ccccc1 (some centres unmarked) [Compound 23]
Produrg CETSA screening, raw signal ([3]; n=1, temperature point 5 of 16, temperature not given): 69363 and 80806 and 112884 | Produrg CETSA screening, raw signal ([3]; n=1, temperature point 6 of 16, temperature not given): 96967 and 118352 and 144445 | Produrg CETSA screening, raw signal ([3]; n=1, temperature point 7 of 16, temperature not given): 143643 and 166973 and 192783 | Produrg CETSA screening, raw signal ([3]; n=1, temperature point 8 of 16, temperature not given): 106216 and 128406 and 210436 | Produrg CETSA screening, raw signal ([3]; n=1, temperature point 9 of 16, temperature not given): 167377 and 176709 and 206363 | Produrg CETSA screening, raw signal ([3]; n=1, temperature point 10 of 16, temperature not given): 186703 and 236478 and 300868 | Produrg CETSA screening, raw signal ([3]; n=1, temperature point 11 of 16, temperature not given): 231104 and 290174 and 305287 | Produrg CETSA screening, raw signal ([3]; n=1, temperature point 12 of 16, temperature not given): 354321 and 369048 and 401655 | Produrg CETSA screening, raw signal ([3]; n=1, temperature point 13 of 16, temperature not given): 341517 and 349800 and 466508 | Produrg CETSA screening, raw signal ([3]; n=1, temperature point 14 of 16, temperature not given): 353173 and 365195 and 397047 | Produrg CETSA screening, raw signal ([3]; n=1, temperature point 15 of 16, temperature not given): 381815 and 407106 and 448233 | Produrg CETSA screening, raw signal ([3]; n=1, temperature point 16 of 16, temperature not given): 423512 and 424780 and 453391 | Produrg CETSA screening, raw signal ([3]; n=2, temperature point 1 of 16, temperature not given): 81542 and 84696 and 155298 | Produrg CETSA screening, raw signal ([3]; n=2, temperature point 2 of 16, temperature not given): 72558 and 139894 and 123324 | Produrg CETSA screening, raw signal ([3]; n=2, temperature point 5 of 16, temperature not given): 87834 and 139601 and 100567 | Produrg CETSA screening, raw signal ([3]; n=2, temperature point 6 of 16, temperature not given): 98775 and 175976 and 137381 | Produrg CETSA screening, raw signal ([3]; n=2, temperature point 7 of 16, temperature not given): 152633 and 181253 and 191364 | Produrg CETSA screening, raw signal ([3]; n=2, temperature point 8 of 16, temperature not given): 176015 and 229873 and 213107 | Produrg CETSA screening, raw signal ([3]; n=2, temperature point 9 of 16, temperature not given): 189127 and 214945 and 246245 | Produrg CETSA screening, raw signal ([3]; n=2, temperature point 10 of 16, temperature not given): 212633 and 267460 and 262658 | Produrg CETSA screening, raw signal ([3]; n=2, temperature point 11 of 16, temperature not given): 244590 and 322245 and 338306 | Produrg CETSA screening, raw signal ([3]; n=2, temperature point 12 of 16, temperature not given): 338485 and 407495 and 420421 | Produrg CETSA screening, raw signal ([3]; n=2, temperature point 13 of 16, temperature not given): 375692 and 455999 and 437696 | Produrg CETSA screening, raw signal ([3]; n=2, temperature point 14 of 16, temperature not given): 432064 and 448169 and 475813 | Produrg CETSA screening, raw signal ([3]; n=2, temperature point 15 of 16, temperature not given): 397604 and 474479 and 457905 | Produrg CETSA screening, raw signal ([3]; n=2, temperature point 16 of 16, temperature not given): 400496 and 479946 and 527841 | Produrg CETSA screening, raw signal ([3]; n=3, Temp, 0C 54.1): 44604 | Produrg CETSA screening, raw signal ([3]; n=3, Temp, 0C 55): 39796 and 47150 and 51627 | Produrg CETSA screening, raw signal ([3]; n=3, Temp, 0C 56): 45790 and 51042 and 62078 | Produrg CETSA screening, raw signal ([3]; n=3, Temp, 0C 57.1): 31202 and 38155 and 39301 | Produrg CETSA screening, raw signal ([3]; n=3, Temp, 0C 59.2): 28243 and 27436 and 39233 | Produrg CETSA screening, raw signal ([3]; n=3, Temp, 0C 62.3): 17330 and 19655 and 29378 | Produrg CETSA screening, raw signal ([3]; n=3, Temp, 0C 66.1): 14860 and 24999 and 29256 | Produrg CETSA screening, raw signal ([3]; n=3, Temp, 0C 71.1): 14600 and 19386 and 22788 | ΔT ([3]; Prodrug screen CETSA, live HeLa cells, 50 μM, 20 h, Mean n = 3): 2.28 oC | ΔT, individual replicates n1-n3 ([3]; Prodrug screen CETSA, single replicates): 0.90 oC and 3.19 oC and 2.74 oC
